Source: patent publication US8722849B2, “Polypeptides” (Novo Nordisk A/S, priority 2011, dated 2014)
In brackets after ≈: the same amount, converted by molar mass. Where two headings read alike, the source gives them in different places. Starred links: 1 amine or outer side, 2 acyl side, 3 side chain; linkers in the order of their positions; H or OH if unused. Positions of bridges follow the written chain, without caps; N, C: chain ends. Residues, ends and D or L forms follow the SMILES beside them. *: point of attachment. C20 diacid = O=C(O)CCCCCCCCCCCCCCCCCCC(=O)*; γGlu = O=C(O)[C@H](CCC(=O)[*:2])N[*:1]

Assays:
[1] = Assay (III) ThT fibrillation assay for physical stability; format: physicochemical; details: ThT fibrillation assay
Outline: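 Freshly prepared formulations, pH-adjusted, with 1 μM ThT; four or eight replicates incubated at 37 °C under 960 rpm orbital shaking. Fluorescence (ex 444/em 485 nm) read every 20 min; […]. Peptide concentration measured by RP-HPLC before and after the run.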

[2] = target: T1, human calcitonin receptor (Homo sapiens, UniProt P30988); test: Assay (II)a functional CRE-luciferase assay, human calcitonin receptor; format: cell-based; details: Table 7; human calcitonin (CTa) receptor
T1 construct: expressed in transfected cells; host or cells: BHK570
T1 sequence (P30988 25-474): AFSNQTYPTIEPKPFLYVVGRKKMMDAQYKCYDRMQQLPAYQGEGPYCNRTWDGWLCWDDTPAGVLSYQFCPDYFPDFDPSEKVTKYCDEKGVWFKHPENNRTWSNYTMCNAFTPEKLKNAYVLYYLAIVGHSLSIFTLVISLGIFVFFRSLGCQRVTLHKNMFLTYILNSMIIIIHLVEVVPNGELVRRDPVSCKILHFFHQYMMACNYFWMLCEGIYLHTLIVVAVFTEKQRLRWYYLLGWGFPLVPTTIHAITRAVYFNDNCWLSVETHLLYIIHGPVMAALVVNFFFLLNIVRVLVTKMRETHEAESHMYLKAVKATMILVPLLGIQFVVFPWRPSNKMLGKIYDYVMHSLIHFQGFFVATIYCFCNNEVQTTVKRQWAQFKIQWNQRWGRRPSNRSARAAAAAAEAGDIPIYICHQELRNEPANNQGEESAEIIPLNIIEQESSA

[3] = target: T2, human amylin receptor (amylin 3(a) receptor: human calcitonin receptor + RAMP-3) (Homo sapiens, UniProt O60896+P30988); test: Assay (II)a functional CRE-luciferase assay, human amylin receptor; format: cell-based; details: Table 2; BHK amylin 3(a)-receptor/CRE-luc cells
T2 construct: expressed in transfected cells; host or cells: BHK570
T2 sequence (P30988 25-474): T1 sequence (P30988 25-474)
T2 sequence (O60896 24-148 partner): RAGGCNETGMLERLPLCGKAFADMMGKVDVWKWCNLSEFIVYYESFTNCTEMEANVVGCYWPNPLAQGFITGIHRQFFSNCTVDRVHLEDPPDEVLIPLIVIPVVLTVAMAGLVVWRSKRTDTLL

[4] = Assay (IV) determination of solubility; format: physicochemical
Outline: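 Eight 100 mM buffers (glycylglycine pH 3.0–5.0, bistrispropane pH 6.0–8.0) each received an equal volume of polypeptide dissolved in water at ~500 nmol/ml. Soluble polypeptide was measured by HPLC following 18 hours at room temperature and centrifugation.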

[5] = bistrispropane buffer, pH 6, pH 6.0, read-out: Solubility pH 6.0
[6] = bistrispropane buffer, pH 6.5, pH 6.5, read-out: Solubility pH 6.5
[7] = bistrispropane buffer, pH 7, pH 7.0, 18 hours at room temperature, Table 3, read-out: Solubility pH 7.0
[8] = bistrispropane buffer, pH 7, pH 7.0, read-out: Solubility pH 7.0
[9] = bistrispropane buffer, pH 7.5, pH 7.5, read-out: Solubility pH 7.5
[10] = bistrispropane buffer, pH 8, pH 8.0, read-out: Solubility pH 8.0
[11] = glycylglycine buffer, pH 3, pH 3.0, read-out: Solubility pH 3.0
[12] = glycylglycine buffer, pH 4, pH 4.0, 18 hours at room temperature, Table 2, read-out: Solubility pH 4.0
[13] = glycylglycine buffer, pH 4, pH 4.0, read-out: Solubility pH 4.0
[14] = glycylglycine buffer, pH 5, pH 5.0, read-out: Solubility pH 5.0

ThT pH 4.0 lag time (h) [1] [h]	EC50 [2] [nM]	EC50 [3] [nM]	solubility at 18 h [4, 5] [µM]	solubility at 18 h [4, 6] [µM]	solubility at 18 h [4, 7] [µM]	solubility at 18 h [4, 8] [µM]	solubility at 18 h [4, 9] [µM]	solubility at 18 h [4, 10] [µM]	solubility at 18 h [4, 11] [µM]	solubility at 18 h [4, 12] [µM]	solubility at 18 h [4, 13] [µM]	solubility at 18 h [4, 14] [µM]	SMILES
16	0.077	0.0565	> 200	> 200	> 200	> 200	> 200	> 200	> 200	> 200	> 200	> 200	CC[C@H](C)[C@H](NC(=O)[C@@H]1CCCN1C(=O)CNC(=O)[C@H](Cc1ccccc1)NC(=O)[C@H](CC(N)=O)NC(=O)[C@H](CC(N)=O)NC(=O)[C@H](CO)NC(=O)[C@H](CO)NC(=O)[C@H](CCCNC(=N)N)NC(=O)[C@H](Cc1c[nH]cn1)NC(=O)[C@H](CC(C)C)NC(=O)[C@H](Cc1ccccc1)NC(=O)[C@H](CCC(=O)O)NC(=O)[C@H](C)NC(=O)[C@H](CC(C)C)NC(=O)[C@H](CCCNC(=N)N)NC(=O)[C@H](CCC(N)=O)NC(=O)[C@@H](NC(=O)[C@H](C)NC(=O)[C@@H]1CSSC[C@H](NC(=O)[C@H](CCCCN)NC(=O)CC[C@H](NC(=O)CCCCCCCCCCCCCCCCCCC(=O)O)C(=O)O)C(=O)N[C@@H](CC(N)=O)C(=O)N[C@@H]([C@@H](C)O)C(=O)N[C@@H](C)C(=O)N[C@@H]([C@@H](C)O)C(=O)N1)[C@@H](C)O)C(=O)N[C@@H](CC(C)C)C(=O)N1CCC[C@H]1C(=O)N1CCC[C@H]1C(=O)N[C@H](C(=O)N[C@@H](CC(N)=O)C(=O)N[C@H](C(=O)NCC(=O)N[C@@H](CO)C(=O)N[C@@H](CC(N)=O)C(=O)N[C@H](C(=O)N[C@@H](Cc1ccc(O)cc1)C(N)=O)[C@@H](C)O)C(C)C)[C@@H](C)O [Example 79, N-alpha-[(S)-4-Carboxy-4-(19-carboxynonadecanoylamino)butyryl]-[Glu14,His17,Arg18]-pramlintide] ({C20 diacid-γGlu}-KCNTATCATQRLAEFLHRSSNNFGPILPPTNVGSNTY-NH2; disulfide 2-7 (inferred))
1.3	0.801	0.286	17 (≈ 81 µg/mL)				9 (≈ 42.9 µg/mL)	66 (≈ 314 µg/mL)	> 200	> 200	> 200	194 (≈ 924 µg/mL)	CC[C@H](C)[C@H](NC(=O)[C@@H]1CCCN1C(=O)CNC(=O)[C@H](Cc1ccccc1)NC(=O)[C@H](CC(N)=O)NC(=O)[C@H](CC(N)=O)NC(=O)[C@H](CO)NC(=O)[C@H](CO)NC(=O)[C@H](Cc1c[nH]cn1)NC(=O)[C@H](Cc1c[nH]cn1)NC(=O)[C@H](CC(C)C)NC(=O)[C@H](Cc1ccccc1)NC(=O)[C@H](CCC(=O)O)NC(=O)[C@H](C)NC(=O)[C@H](CC(C)C)NC(=O)[C@H](CCCNC(=N)N)NC(=O)[C@H](CCC(N)=O)NC(=O)[C@@H](NC(=O)[C@H](C)NC(=O)[C@@H]1CSSC[C@H](NC(=O)[C@H](Cc2c[nH]cn2)NC(=O)[C@H](Cc2c[nH]cn2)NC(=O)[C@H](Cc2c[nH]cn2)NC(=O)CC[C@H](NC(=O)CCCCCCCCCCCCCCCCCCC(=O)O)C(=O)O)C(=O)N[C@@H](Cc2c[nH]cn2)C(=O)N[C@@H]([C@@H](C)O)C(=O)N[C@@H](C)C(=O)N[C@@H]([C@@H](C)O)C(=O)N1)[C@@H](C)O)C(=O)N[C@@H](CC(C)C)C(=O)N1CCC[C@H]1C(=O)N1CCC[C@H]1C(=O)N[C@H](C(=O)N[C@@H](CC(N)=O)C(=O)N[C@H](C(=O)NCC(=O)N[C@@H](CO)C(=O)N[C@@H](CC(N)=O)C(=O)N[C@H](C(=O)N[C@@H](Cc1ccc(O)cc1)C(N)=O)[C@@H](C)O)C(C)C)[C@@H](C)O [Example 35, N-alpha-[(S)-4-Carboxy-4-(19-carboxynonadecanoylamino)butyryl]-His-His-[His1,His3,Glu14,His17]-pramlintide] ({C20 diacid-γGlu}-HHHCHTATCATQRLAEFLHHSSNNFGPILPPTNVGSNTY-NH2; disulfide 4-9)
2	0.632	0.558	1 (≈ 4.73 µg/mL)	2 (≈ 9.45 µg/mL)		75 (≈ 355 µg/mL)	> 200	> 200	> 200	> 200	> 200	> 200	CC[C@H](C)[C@H](NC(=O)[C@@H]1CCCN1C(=O)CNC(=O)[C@H](Cc1ccccc1)NC(=O)[C@H](CC(N)=O)NC(=O)[C@H](CO)NC(=O)[C@H](CO)NC(=O)[C@H](CO)NC(=O)[C@H](Cc1c[nH]cn1)NC(=O)[C@H](Cc1c[nH]cn1)NC(=O)[C@H](CC(C)C)NC(=O)[C@H](Cc1ccccc1)NC(=O)[C@H](CCC(=O)O)NC(=O)[C@H](C)NC(=O)[C@H](CC(C)C)NC(=O)[C@H](CCCNC(=N)N)NC(=O)[C@H](CCC(N)=O)NC(=O)[C@@H](NC(=O)[C@H](C)NC(=O)[C@@H]1CSSC[C@H](NC(=O)[C@H](Cc2c[nH]cn2)NC(=O)[C@H](Cc2c[nH]cn2)NC(=O)[C@H](Cc2c[nH]cn2)NC(=O)CC[C@H](NC(=O)CCCCCCCCCCCCCCCCCCC(=O)O)C(=O)O)C(=O)N[C@@H](CC(N)=O)C(=O)N[C@@H]([C@@H](C)O)C(=O)N[C@@H](C)C(=O)N[C@@H]([C@@H](C)O)C(=O)N1)[C@@H](C)O)C(=O)N[C@@H](CC(C)C)C(=O)N1CCC[C@H]1C(=O)N1CCC[C@H]1C(=O)N[C@H](C(=O)N[C@@H](CC(N)=O)C(=O)N[C@H](C(=O)NCC(=O)N[C@@H](CO)C(=O)N[C@@H](CCC(=O)O)C(=O)N[C@H](C(=O)N[C@@H](Cc1ccc(O)cc1)C(N)=O)[C@@H](C)O)C(C)C)[C@@H](C)O [Example 63, N-alpha-[(S)-4-Carboxy-4-(19-carboxynonadecanoylamino)butyryl]-His-His-[His1,Glu14,His17,Ser21,Glu35]-pramlintide] ({C20 diacid-γGlu}-HHHCNTATCATQRLAEFLHHSSSNFGPILPPTNVGSETY-NH2; disulfide 4-9 (inferred); C-terminus assumed)
7	0.439	0.248	> 200	> 200	> 200	> 200	> 200	> 200	> 200	> 200	> 200	> 200	CC[C@H](C)[C@H](NC(=O)[C@@H]1CCCN1C(=O)CNC(=O)[C@H](Cc1ccccc1)NC(=O)[C@H](CC(N)=O)NC(=O)[C@H](CC(N)=O)NC(=O)[C@H](CO)NC(=O)[C@H](CO)NC(=O)[C@H](Cc1c[nH]cn1)NC(=O)[C@H](Cc1c[nH]cn1)NC(=O)[C@H](CC(C)C)NC(=O)[C@H](Cc1ccccc1)NC(=O)[C@H](CCC(=O)O)NC(=O)[C@H](C)NC(=O)[C@H](CC(C)C)NC(=O)[C@H](CCCNC(=N)N)NC(=O)[C@H](CCC(N)=O)NC(=O)[C@@H](NC(=O)[C@H](C)NC(=O)[C@@H]1CSSC[C@H](NC(=O)[C@H](Cc2c[nH]cn2)NC(=O)[C@H](CCC(=O)O)NC(=O)CC[C@H](NC(=O)CCCCCCCCCCCCCCCCCCC(=O)O)C(=O)O)C(=O)N[C@@H](CC(N)=O)C(=O)N[C@@H]([C@@H](C)O)C(=O)N[C@@H](C)C(=O)N[C@@H]([C@@H](C)O)C(=O)N1)[C@@H](C)O)C(=O)N[C@@H](CC(C)C)C(=O)N1CCC[C@H]1C(=O)N1CCC[C@H]1C(=O)N[C@H](C(=O)N[C@@H](CC(N)=O)C(=O)N[C@H](C(=O)NCC(=O)N[C@@H](CO)C(=O)N[C@@H](CC(N)=O)C(=O)N[C@H](C(=O)N[C@@H](Cc1ccc(O)cc1)C(N)=O)[C@@H](C)O)C(C)C)[C@@H](C)O [Example 40, N-alpha-[(S)-4-Carboxy-4-(19-carboxynonadecanoylamino)butyryl]-Glu-[His1,Glu14,His17]-pramlintide] ({C20 diacid-γGlu}-EHCNTATCATQRLAEFLHHSSNNFGPILPPTNVGSNTY-NH2; disulfide 3-8 (inferred); C-terminus assumed)
